The results in this text go back to PubChem BioAssay (NCI).

Test systems include ACHN renal; NCI-H460 lung; 786-0 renal; OVCAR-5 ovarian; UACC-257 melanoma; M14 melanoma; LOX IMVI melanoma; SF-539 CNS; OVCAR-3 ovarian; SK-OV-3 ovarian.
Assay in all cases: NCI tumour cell line growth inhibition, 48 h

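1) Cells in 96-well plates. 2) Compound, 48 h, 5 concentrations. 3) Linear interpolation between surrounding doses. 4) Unreached endpoint = highest concentration. Here, GI50 denotes the concentration required for 50% inhibition of growth. At the TGI there is no net growth.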 Bounds are passed on as bounds.

On to `COc1ccc(C2=NNC(=O)OC2c2ccccc2)cc1` (centres undefined), for which the TGI in the test on ACHN renal, in the test with NCI-H460 lung, in the test on 786-0 renal, in the test with OVCAR-5 ovarian, in the test on UACC-257 melanoma and in the test with M14 melanoma was above 100 µM each time. In addition, the TGI with LOX IMVI melanoma, with SF-539 CNS and in the test on OVCAR-3 ovarian was above 100 µM throughout.

`CCCCCCCC/C=C/CCCCCCCC1=NCC[N+]1(CCO)CCO`: the GI50 with ACHN renal was 6.11 µM; in the test with NCI-H460 lung, 1.69 µM; in the test on 786-0 renal, 4.8 µM; in the test on OVCAR-5 ovarian, 4.98 µM; with UACC-257 melanoma, 2.25 µM; with M14 melanoma, 2.26 µM. In addition, the GI50 was 10.1 µM in the test with SK-OV-3 ovarian, 3.7 µM in the test on SF-539 CNS and 1.94 µM in the test on OVCAR-3 ovarian. The TGI in the test on ACHN renal came to 20.8 µM; in the test on NCI-H460 lung, 3.39 µM; in the test with 786-0 renal it was 22.1 µM; with OVCAR-5 ovarian, 18.9 µM; in the test on UACC-257 melanoma it was 8.42 µM; in the test on M14 melanoma it was 5.77 µM. Moreover, the values for the TGI in the test on SK-OV-3 ovarian, in the test with SF-539 CNS and in the test with OVCAR-3 ovarian were 24.4 µM, 13.1 µM and 4.42 µM, respectively.

For the compound `COC(=O)c1ccc2c(c1)nc(-c1cc3ccccc3[nH]c1=O)n2-c1cc(C(C)(C)C)[nH]n1`, the GI50 in the test on ACHN renal was above 100 µM; in the test with NCI-H460 lung it was 0.784 µM; in the test on 786-0 renal, 3.79 µM; with SK-OV-3 ovarian it was above 53.4 µM; in the test with SF-539 CNS, above 20.3 µM; in the test with OVCAR-3 ovarian, 4.5 µM. The TGI in the test on ACHN renal, with NCI-H460 lung, in the test on 786-0 renal, in the test on SK-OV-3 ovarian, with SF-539 CNS and in the test on OVCAR-3 ovarian was above 100 µM throughout.

With `COc1cc(/C=C/c2cc(/C=C/c3ccc(O)c(OC)c3)n(-c3c(C)cccc3C)c(=O)n2)ccc1O`, the GI50 with ACHN renal was 0.399 µM; in the test with NCI-H460 lung it was 0.683 µM; in the test on 786-0 renal it was 0.958 µM; in the test on OVCAR-5 ovarian, 2.65 µM; with UACC-257 melanoma, 1.62 µM; in the test with SK-OV-3 ovarian, 0.438 µM. For the same compound, in the test with OVCAR-3 ovarian, the GI50 is 1.37 µM. In addition, the TGI was 10.6 µM in the test with ACHN renal; 4.37 µM with NCI-H460 lung; 3.41 µM in the test on 786-0 renal; 9.59 µM in the test with OVCAR-5 ovarian; 6.54 µM in the test with UACC-257 melanoma; 3.37 µM in the test on SK-OV-3 ovarian. Further, in the test on OVCAR-3 ovarian, the TGI was 6.6 µM.

As to `Cc1ccc(-c2nc(SCC(=O)O)n[nH]2)cc1`, the TGI in the test with ACHN renal, in the test with NCI-H460 lung, in the test with 786-0 renal, with OVCAR-5 ovarian, in the test on UACC-257 melanoma and in the test with M14 melanoma was above 100 µM in each case. For the same compound, the TGI with SK-OV-3 ovarian, in the test with SF-539 CNS and in the test with OVCAR-3 ovarian was above 100 µM in each case.

Take `CCOc1ccc([C@@H]2[C@@H](Oc3ccccc3)C(=O)N2c2cc(OC)c(OC)c(OC)c2)cc1`: the GI50 with ACHN renal is 0.07 µM; with NCI-H460 lung, 0.285 µM; in the test on 786-0 renal it was 0.0896 µM; in the test with OVCAR-5 ovarian, 0.47 µM; in the test on UACC-257 melanoma, 86.4 µM; in the test with M14 melanoma, 0.04 µM. The GI50 is 0.0642 µM in the test on LOX IMVI melanoma, 0.227 µM with SK-OV-3 ovarian and 0.0355 µM in the test with OVCAR-3 ovarian. Moreover, the TGI in the test with ACHN renal, with NCI-H460 lung, in the test on 786-0 renal, in the test with OVCAR-5 ovarian, with UACC-257 melanoma and in the test on M14 melanoma was above 100 µM in each case. The TGI with LOX IMVI melanoma, in the test with SK-OV-3 ovarian and with OVCAR-3 ovarian was above 100 µM each time.

`CN(C)c1ccc(N=Cc2c([O-])ccc3ccccc23)cc1.[C-]#[O+].[C-]#[O+].[Ir]`: the GI50 with ACHN renal was 18.8 µM; in the test on 786-0 renal it was 25.1 µM; with OVCAR-5 ovarian, 29.1 µM; with UACC-257 melanoma, 16.3 µM; with M14 melanoma, 20.7 µM; in the test with LOX IMVI melanoma, 15.4 µM. Besides, the GI50 was 34.4 µM with SK-OV-3 ovarian, 19.9 µM in the test with SF-539 CNS and 16.6 µM in the test with OVCAR-3 ovarian. For the same compound, the TGI in the test on ACHN renal was 43.7 µM; with 786-0 renal, 65.1 µM; in the test on OVCAR-5 ovarian, 64.3 µM; in the test with UACC-257 melanoma it was 37.1 µM; in the test with M14 melanoma, 46.1 µM; with LOX IMVI melanoma it was 30.4 µM. The TGI with SK-OV-3 ovarian was above 100 µM; with SF-539 CNS, 40.7 µM; in the test on OVCAR-3 ovarian, 32.4 µM.

For `O=C(OCc1ccccc1)N1CCN(/[N+]([O-])=N/Oc2ccc([N+](=O)[O-])cc2[N+](=O)[O-])CC1`, the GI50 in the test with ACHN renal was 7.12 µM; in the test with NCI-H460 lung it was 9.96 µM; with 786-0 renal, 2.45 µM; in the test on OVCAR-5 ovarian, 6.43 µM; in the test with UACC-257 melanoma, 19.5 µM; in the test on SF-539 CNS, 2.81 µM. For the same compound, in the test with OVCAR-3 ovarian, the GI50 was 3.01 µM. The TGI in the test on ACHN renal came to 26.6 µM; in the test with NCI-H460 lung it was 40.6 µM; in the test on 786-0 renal, 6.97 µM; with OVCAR-5 ovarian, 67.6 µM; with UACC-257 melanoma, 36.5 µM; in the test with SF-539 CNS, 7.11 µM. In the test with OVCAR-3 ovarian, this compound yielded a TGI of 6.96 µM.

For the compound `CCNCC(=O)O[C@]1(CC)C(=O)OCc2c1cc1n(c2=O)Cc2cc3ccccc3nc2-1`, the TGI with ACHN renal is 1.98 µM; with 786-0 renal, 1.05 µM; with OVCAR-5 ovarian it was 13.2 µM; in the test with UACC-257 melanoma it was 12.2 µM; in the test on M14 melanoma, 13.7 µM; in the test with LOX IMVI melanoma, 1.22 µM. The values for the TGI with SK-OV-3 ovarian, in the test with SF-539 CNS and with OVCAR-3 ovarian were 10.8 µM, 0.574 µM and 15.9 µM, respectively.

For the compound `CS(=O)CCCCCN=C=S` (centres undefined), the GI50 in the test with ACHN renal is 4.07 µM; in the test on NCI-H460 lung it was 2.53 µM; in the test with 786-0 renal, 5.68 µM; with OVCAR-5 ovarian, 10.6 µM; with UACC-257 melanoma, 4.35 µM; in the test with M14 melanoma it was 3.3 µM. In addition, the values for the GI50 in the test with LOX IMVI melanoma, with SK-OV-3 ovarian and in the test with OVCAR-3 ovarian were 0.782 µM, 13.7 µM and 3.07 µM, respectively. The TGI in the test with ACHN renal stood at 16.5 µM; with NCI-H460 lung, 6.64 µM; in the test with 786-0 renal, 19.5 µM; with OVCAR-5 ovarian it was 25.5 µM; in the test with UACC-257 melanoma, 19.7 µM; with M14 melanoma, 14.6 µM. For the same compound, the TGI with LOX IMVI melanoma worked out at 10.3 µM; in the test with SK-OV-3 ovarian it was 27.3 µM; with OVCAR-3 ovarian, 10.1 µM.
